Test results as given in the NIST ThermoML archive (doi:10.1016/j.tca.2004.07.014).
Numbers after ± are expanded uncertainties.

What was measured:
[1] = xn = mol fraction of the nth substance listed; settings: 303.15 K, 101.3 kPa, Liquid; for speed of sound: Linear variable-path acoustic interferometer
[2] = 303.15 K, 101.3 kPa, Liquid; for speed of sound: Linear variable-path acoustic interferometer

CCOC(=O)CCl [ethyl chloroethanoate] + ClC(Cl)(Cl)Cl
[1]
Settings | mass density [kg/m3] | speed of sound [m/s] | viscosity [mPa·s]
x1 = 0.095 | 1530.01 ± 1.3 | 933 ± 2 | 0.853 ± 0.022
x1 = 0.1992 | 1481.59 ± 1.2 | 964 ± 2 | 0.862 ± 0.022
x1 = 0.298 | 1436.61 ± 1.1 | 994 ± 2 | 0.862 ± 0.022
x1 = 0.3972 | 1392.26 ± 1 | 1025 ± 2 | 0.87 ± 0.022
x1 = 0.5 | 1347.02 ± 0.95 | 1058 ± 2 | 0.891 ± 0.023
x1 = 0.5978 | 1304.82 ± 0.86 | 1089 ± 2 | 0.928 ± 0.023
x1 = 0.6984 | 1262.23 ± 0.77 | 1123 ± 2 | 0.967 ± 0.024
x1 = 0.8044 | 1218.14 ± 0.68 | 1158 ± 2 | 1.021 ± 0.025
x1 = 0.8978 | 1180.11 ± 0.61 | 1191 ± 2 | 1.113 ± 0.027
x1 = 1 | 1139.18 ± 0.53 | 1227 ± 3 | 1.275 ± 0.031

ClC(Cl)Cl [trichloromethane]
[2]
Settings | mass density [kg/m3] | speed of sound [m/s]
– | 1470.59 ± 1.2 | 967 ± 2

Settings | viscosity [mPa·s]
[2], Capillary tube (Ostwald / Ubbelohde) method | 0.512 ± 0.005

CCOC(=O)CCl [ethyl chloroethanoate] + ClC(Cl)Cl
[1]
Settings | mass density [kg/m3] | speed of sound [m/s] | viscosity [mPa·s]
x1 = 0.0989 | 1429.89 ± 1.1 | 990 ± 2 | 0.617 ± 0.009
x1 = 0.1945 | 1392.15 ± 1 | 1014 ± 2 | 0.687 ± 0.009
x1 = 0.2954 | 1354.22 ± 0.95 | 1038 ± 2 | 0.759 ± 0.01
x1 = 0.3905 | 1320.14 ± 0.89 | 1062 ± 2 | 0.806 ± 0.011
x1 = 0.5048 | 1281.24 ± 0.82 | 1091 ± 2 | 0.852 ± 0.011
x1 = 0.6012 | 1250.32 ± 0.75 | 1115 ± 2 | 0.9 ± 0.012
x1 = 0.6875 | 1223.93 ± 0.69 | 1137 ± 2 | 0.943 ± 0.012
x1 = 0.7658 | 1201.01 ± 0.65 | 1159 ± 2 | 0.989 ± 0.013
x1 = 0.8992 | 1164.5 ± 0.58 | 1198 ± 2 | 1.114 ± 0.014

CCOC(=O)CC(=O)OCC [diethyl 1,3-propanedioate]
[2]
Settings | mass density [kg/m3] | speed of sound [m/s]
– | 1043.23 ± 0.36 | 1274 ± 3

Settings | viscosity [mPa·s]
[2], Capillary tube (Ostwald / Ubbelohde) method | 1.721 ± 0.013

CCOC(=O)C(Br)C(=O)OCC [diethyl bromomalonate] + ClC(Cl)Cl
[1]
Settings | mass density [kg/m3] | speed of sound [m/s] | viscosity [mPa·s]
x1 = 0.098 | 1460.41 ± 1.2 | 989 ± 2 | 0.709 ± 0.01
x1 = 0.1971 | 1450.47 ± 1.2 | 1010 ± 3 | 0.941 ± 0.013
x1 = 0.296 | 1441.28 ± 1.3 | 1032 ± 3 | 1.2 ± 0.016
x1 = 0.4033 | 1432.36 ± 1.3 | 1054 ± 3 | 1.507 ± 0.02
x1 = 0.5045 | 1424.91 ± 1.4 | 1075 ± 3 | 1.84 ± 0.025
x1 = 0.5919 | 1419.12 ± 1.4 | 1092 ± 3 | 2.141 ± 0.03
x1 = 0.6911 | 1413.32 ± 1.5 | 1112 ± 3 | 2.501 ± 0.036
x1 = 0.7991 | 1407.82 ± 1.6 | 1131 ± 3 | 2.899 ± 0.043
x1 = 0.8997 | 1403.21 ± 1.6 | 1149 ± 3 | 3.253 ± 0.05

ClC(Cl)(Cl)Cl [tetrachloromethane] + CCOC(=O)CCl
[1], x2 = 0
Settings | mass density [kg/m3] | speed of sound [m/s] | viscosity [mPa·s]
– | 1574.82 ± 1.4 | 905 ± 2 | 0.844 ± 0.022

CCOC(=O)C(Br)C(=O)OCC [diethyl bromomalonate]
[2]
Settings | mass density [kg/m3] | speed of sound [m/s]
– | 1399.18 ± 1.7 | 1166 ± 3

Settings | viscosity [mPa·s]
[2], Capillary tube (Ostwald / Ubbelohde) method | 3.614 ± 0.046

ClC(Cl)(Cl)Cl [tetrachloromethane]
[2]
Settings | mass density [kg/m3] | speed of sound [m/s] | viscosity [mPa·s]
– | 1574.82 ± 1.4 | 905 ± 2 | 0.844 ± 0.011

CCOC(=O)CC(=O)OCC [diethyl 1,3-propanedioate] + ClC(Cl)Cl
[1]
Settings | mass density [kg/m3] | speed of sound [m/s] | viscosity [mPa·s]
x1 = 0.0968 | 1399.36 ± 1 | 999 ± 2 | 0.533 ± 0.008
x1 = 0.2004 | 1334.53 ± 0.91 | 1031 ± 2 | 0.568 ± 0.008
x1 = 0.3089 | 1276.4 ± 0.8 | 1065 ± 2 | 0.622 ± 0.009
x1 = 0.4122 | 1228.62 ± 0.72 | 1097 ± 2 | 0.692 ± 0.009
x1 = 0.5385 | 1178.25 ± 0.63 | 1136 ± 2 | 0.808 ± 0.011
x1 = 0.6125 | 1151.99 ± 0.57 | 1159 ± 2 | 0.891 ± 0.012
x1 = 0.7225 | 1116.7 ± 0.5 | 1192 ± 2 | 1.05 ± 0.013
x1 = 0.8156 | 1089.85 ± 0.44 | 1220 ± 3 | 1.226 ± 0.016
x1 = 0.9071 | 1065.78 ± 0.4 | 1246 ± 3 | 1.444 ± 0.018

ClC(Cl)Cl [trichloromethane] + CCOC(=O)CCl
[1], x2 = 0
Settings | mass density [kg/m3] | speed of sound [m/s] | viscosity [mPa·s]
– | 1470.59 ± 1.2 | 967 ± 2 | 0.512 ± 0.008

CCOC(=O)CC(=O)OCC [diethyl 1,3-propanedioate] + ClC(Cl)(Cl)Cl
[1]
Settings | mass density [kg/m3] | speed of sound [m/s] | viscosity [mPa·s]
x1 = 0.1173 | 1480.36 ± 1.2 | 949 ± 2 | 0.857 ± 0.011
x1 = 0.2031 | 1419.02 ± 1.1 | 982 ± 2 | 0.877 ± 0.011
x1 = 0.2999 | 1356.61 ± 0.96 | 1018 ± 2 | 0.918 ± 0.012
x1 = 0.4623 | 1265.6 ± 0.81 | 1080 ± 2 | 1.002 ± 0.013
x1 = 0.5648 | 1215.59 ± 0.7 | 1120 ± 2 | 1.084 ± 0.014
x1 = 0.6579 | 1174.08 ± 0.61 | 1154 ± 2 | 1.167 ± 0.015
x1 = 0.7478 | 1136.91 ± 0.53 | 1185 ± 2 | 1.272 ± 0.016
x1 = 0.8311 | 1104.69 ± 0.47 | 1216 ± 3 | 1.388 ± 0.017
x1 = 0.9189 | 1072.19 ± 0.41 | 1247 ± 3 | 1.544 ± 0.019
x1 = 1 | 1043.23 ± 0.36 | 1274 ± 3 | 1.721 ± 0.021

CCOC(=O)C(Br)C(=O)OCC [diethyl bromomalonate] + ClC(Cl)(Cl)Cl
[1]
Settings | mass density [kg/m3] | speed of sound [m/s] | viscosity [mPa·s]
x1 = 0.1001 | 1552.35 ± 1.4 | 944 ± 2 | 1.012 ± 0.013
x1 = 0.1992 | 1531.61 ± 1.4 | 980 ± 3 | 1.207 ± 0.016
x1 = 0.3007 | 1512.21 ± 1.4 | 1012 ± 3 | 1.433 ± 0.019
x1 = 0.4088 | 1492.99 ± 1.4 | 1047 ± 3 | 1.705 ± 0.023
x1 = 0.4988 | 1478.09 ± 1.5 | 1072 ± 3 | 1.948 ± 0.027
x1 = 0.5999 | 1462.1 ± 1.5 | 1098 ± 3 | 2.255 ± 0.032
x1 = 0.699 | 1446.77 ± 1.6 | 1121 ± 3 | 2.571 ± 0.037
x1 = 0.8988 | 1415.72 ± 1.7 | 1155 ± 3 | 3.25 ± 0.05
x1 = 1 | 1399.18 ± 1.7 | 1166 ± 3 | 3.614 ± 0.057

CCOC(=O)CCl [ethyl chloroethanoate]
[2]
Settings | mass density [kg/m3] | speed of sound [m/s] | viscosity [mPa·s]
– | 1139.18 ± 0.53 | 1227 ± 3 | 1.275 ± 0.016
